Measured values: PubChem BioAssay AID2060905 (Molecular Pharmacology Branch, DTP, NCI, 2025)

System: 282377-053-R-J1-PDC complex spheroid viability
Experiment: Anticancer human tumor 282377-053-R-J1-PDC patient-derived colon adenocarcinoma cell line growth inhibition [RAS]
Conditions: for IC50: curve of first compound; for viability, T/C: stronger effect = lower value
How it was run: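 Tumour cells grown as complex spheroids with HUVEC endothelial cells and mesenchymal stem cells, treated with RAS pathway inhibitor combinations. Each agent spans half-log steps from near clinical Cmax, or 10 microM where Cmax is unknown.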

[1] = second compound 0.00316 µM, first compound 0.0316 µM
[2] = second compound 0.00316 µM, first compound 0.1 µM
[3] = second compound 0.00316 µM, first compound 0.316 µM
[4] = second compound 0.00316 µM, first compound 1 µM
[5] = second compound 0.00316 µM, first compound 3.16 µM
[6] = second compound 0.00316 µM, first compound 10 µM
[7] = second compound 0.01 µM, first compound 0.0316 µM
[8] = second compound 0.01 µM, first compound 0.1 µM
[9] = second compound 0.01 µM, first compound 0.316 µM
[10] = second compound 0.01 µM, first compound 1 µM
[11] = second compound 0.01 µM, first compound 3.16 µM
[12] = second compound 0.01 µM, first compound 10 µM
[13] = second compound 0.0316 µM, first compound 0.0316 µM
[14] = second compound 0.0316 µM, first compound 0.1 µM
[15] = second compound 0.0316 µM, first compound 0.316 µM
[16] = second compound 0.0316 µM, first compound 1 µM
[17] = second compound 0.0316 µM, first compound 3.16 µM
[18] = second compound 0.0316 µM, first compound 10 µM
[19] = second compound 0.1 µM, first compound 0.0316 µM
[20] = second compound 0.1 µM, first compound 0.1 µM
[21] = second compound 0.1 µM, first compound 0.316 µM
[22] = second compound 0.1 µM, first compound 1 µM
[23] = second compound 0.1 µM, first compound 3.16 µM
[24] = second compound 0.1 µM, first compound 10 µM
[25] = second compound 0.316 µM, first compound 0.0316 µM
[26] = second compound 0.316 µM, first compound 0.1 µM
[27] = second compound 0.316 µM, first compound 0.316 µM
[28] = second compound 0.316 µM, first compound 1 µM
[29] = second compound 0.316 µM, first compound 3.16 µM
[30] = second compound 0.316 µM, first compound 10 µM
[31] = second compound 1 µM, first compound 0.0316 µM
[32] = second compound 1 µM, first compound 0.1 µM
[33] = second compound 1 µM, first compound 0.316 µM
[34] = second compound 1 µM, first compound 1 µM
[35] = second compound 1 µM, first compound 3.16 µM
[36] = second compound 1 µM, first compound 10 µM
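Further: spheroids exposed to agents for seven days before readout.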
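Wherever viability, T/C is given: luminescence viability as percent of DMSO vehicle control wells.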

## CC(Nc1ccc2c(c1)OCCn1cc(N3C(=O)OCC3C(F)F)nc1-2)C(N)=O (stereo unspecified) + C=CC(=O)N1CCN(c2nc(OCC3CCCN3C)nc3c(F)c(-c4nc(N)cc(C)c4C(F)(F)F)c(Cl)cc23)C(C)C1
Second compound 0.00316 µM
  IC50: > 10 µM
Second compound 0.01 µM
  IC50: > 10 µM
Second compound 0.0316 µM
  IC50: > 10 µM
Second compound 0.1 µM
  IC50: > 10 µM
Second compound 0.316 µM
  IC50: > 10 µM
Second compound 1 µM
  IC50: > 10 µM
[1]
  viability, T/C: 100%
[2]
  viability, T/C: 93.8%
[3]
  viability, T/C: 94.3%
[4]
  viability, T/C: 82.6%
[5]
  viability, T/C: 78.9%
[6]
  viability, T/C: 70.1%
[7]
  viability, T/C: 105%
[8]
  viability, T/C: 89.1%
[9]
  viability, T/C: 79.6%
[10]
  viability, T/C: 82.4%
[11]
  viability, T/C: 89.9%
[12]
  viability, T/C: 81.5%
[13]
  viability, T/C: 91.1%
[14]
  viability, T/C: 86.9%
[15]
  viability, T/C: 87.1%
[16]
  viability, T/C: 88.9%
[17]
  viability, T/C: 77.6%
[18]
  viability, T/C: 86.1%
[19]
  viability, T/C: 101%
[20]
  viability, T/C: 94.1%
[21]
  viability, T/C: 95.5%
[22]
  viability, T/C: 82.2%
[23]
  viability, T/C: 102%
[24]
  viability, T/C: 76.7%
[25]
  viability, T/C: 104%
[26]
  viability, T/C: 92.8%
[27]
  viability, T/C: 100%
[28]
  viability, T/C: 94.3%
[29]
  viability, T/C: 78.2%
[30]
  viability, T/C: 78.4%
[31]
  viability, T/C: 105%
[32]
  viability, T/C: 102%
[33]
  viability, T/C: 92%
[34]
  viability, T/C: 93.8%
[35]
  viability, T/C: 76%
[36]
  viability, T/C: 83.8%

## C[C@@H](NC(=O)c1ncnc(N)c1Cl)c1ncc(C(=O)Nc2cc(C(F)(F)F)c(Cl)cn2)s1 + C=CC(=O)N1CCN(c2nc(OCC3CCCN3C)nc3c(F)c(-c4nc(N)cc(C)c4C(F)(F)F)c(Cl)cc23)C(C)C1
Second compound 0.00316 µM
  IC50: > 10 µM
Second compound 0.01 µM
  IC50: > 10 µM
Second compound 0.0316 µM
  IC50: > 10 µM
Second compound 0.1 µM
  IC50: > 10 µM
Second compound 0.316 µM
  IC50: > 10 µM
Second compound 1 µM
  IC50: > 10 µM
[1]
  viability, T/C: 99%
[2]
  viability, T/C: 101%
[3]
  viability, T/C: 95.4%
[4]
  viability, T/C: 88.4%
[5]
  viability, T/C: 69.5%
[6]
  viability, T/C: 66.1%
[7]
  viability, T/C: 84.1%
[8]
  viability, T/C: 105%
[9]
  viability, T/C: 98%
[10]
  viability, T/C: 80.7%
[11]
  viability, T/C: 82.2%
[12]
  viability, T/C: 76.4%
[13]
  viability, T/C: 84.9%
[14]
  viability, T/C: 78.4%
[15]
  viability, T/C: 89.4%
[16]
  viability, T/C: 84.7%
[17]
  viability, T/C: 80.9%
[18]
  viability, T/C: 57.6%
[19]
  viability, T/C: 106%
[20]
  viability, T/C: 98.7%
[21]
  viability, T/C: 99.9%
[22]
  viability, T/C: 92.3%
[23]
  viability, T/C: 66%
[24]
  viability, T/C: 66.1%
[25]
  viability, T/C: 92.5%
[26]
  viability, T/C: 118%
[27]
  viability, T/C: 98.1%
[28]
  viability, T/C: 81.6%
[29]
  viability, T/C: 78.2%
[30]
  viability, T/C: 92.3%
[31]
  viability, T/C: 104%
[32]
  viability, T/C: 90.3%
[33]
  viability, T/C: 122%
[34]
  viability, T/C: 76.5%
[35]
  viability, T/C: 85%
[36]
  viability, T/C: 82.5%

## O=C(c1ccc(F)c(F)c1Nc1ccc(I)cc1F)N1CC(O)([C@@H]2CCCCN2)C1 + C=CC(=O)N1CCN(c2nc(OCC3CCCN3C)nc3c(F)c(-c4nc(N)cc(C)c4C(F)(F)F)c(Cl)cc23)C(C)C1
Second compound 0.00316 µM
  IC50: 0.0808 µM
Second compound 0.01 µM
  IC50: 0.104 µM
Second compound 0.0316 µM
  IC50: 0.13 µM
Second compound 0.1 µM
  IC50: 0.176 µM
Second compound 0.316 µM
  IC50: 0.145 µM
Second compound 1 µM
  IC50: 0.141 µM
Second compound 0.00316 µM, first compound 0.00316 µM
  viability, T/C: 90.2%
Second compound 0.00316 µM, first compound 0.01 µM
  viability, T/C: 88.3%
[1]
  viability, T/C: 77.2%
[2]
  viability, T/C: 41.4%
[3]
  viability, T/C: 32.6%
[4]
  viability, T/C: 18.4%
Second compound 0.01 µM, first compound 0.00316 µM
  viability, T/C: 102%
Second compound 0.01 µM, first compound 0.01 µM
  viability, T/C: 94%
[7]
  viability, T/C: 68.8%
[8]
  viability, T/C: 52.3%
[9]
  viability, T/C: 31.6%
[10]
  viability, T/C: 17.7%
Second compound 0.0316 µM, first compound 0.00316 µM
  viability, T/C: 88.5%
Second compound 0.0316 µM, first compound 0.01 µM
  viability, T/C: 87.3%
[13]
  viability, T/C: 81.3%
[14]
  viability, T/C: 56.1%
[15]
  viability, T/C: 28.9%
[16]
  viability, T/C: 20.7%
Second compound 0.1 µM, first compound 0.00316 µM
  viability, T/C: 95.6%
Second compound 0.1 µM, first compound 0.01 µM
  viability, T/C: 86.2%
[19]
  viability, T/C: 95.1%
[20]
  viability, T/C: 66.3%
[21]
  viability, T/C: 32.9%
[22]
  viability, T/C: 21.1%
Second compound 0.316 µM, first compound 0.00316 µM
  viability, T/C: 101%
Second compound 0.316 µM, first compound 0.01 µM
  viability, T/C: 95.8%
[25]
  viability, T/C: 87.2%
[26]
  viability, T/C: 57.8%
[27]
  viability, T/C: 32.2%
[28]
  viability, T/C: 17.9%
Second compound 1 µM, first compound 0.00316 µM
  viability, T/C: 98.3%
Second compound 1 µM, first compound 0.01 µM
  viability, T/C: 93.7%
[31]
  viability, T/C: 98.5%
[32]
  viability, T/C: 55.7%
[33]
  viability, T/C: 35.5%
[34]
  viability, T/C: 18%
